Measurements published in paper PMC7497630, “Coibamide A Targets Sec61 to Prevent Biogenesis of Secretory and Membrane Proteins” (ACS Chemical Biology, 2020).

Tests used:
NCI-H23 = conditions: published NCI60 panel data, ref 1 (Coibamide A), 2 (Apratoxin A), 3 (Ipomoeassin F); cited from earlier work
MOLT-4 = conditions: published NCI60 panel data, ref 1 (Coibamide A), 2 (Apratoxin A), 3 (Ipomoeassin F); cited from earlier work
SK-MEL-5 = conditions: published NCI60 panel data, ref 1 (Coibamide A), 2 (Apratoxin A), 3 (Ipomoeassin F); cited from earlier work
KM12 = conditions: published NCI60 panel data, ref 1 (Coibamide A), 2 (Apratoxin A), 3 (Ipomoeassin F); cited from earlier work
MDA-MB-231/ATCC = conditions: published NCI60 panel data, ref 1 (Coibamide A), 2 (Apratoxin A), 3 (Ipomoeassin F); cited from earlier work
U251 = conditions: published NCI60 panel data, ref 1 (Coibamide A), 2 (Apratoxin A), 3 (Ipomoeassin F); cited from earlier work
TK-10 = conditions: published NCI60 panel data, ref 1 (Coibamide A), 2 (Apratoxin A), 3 (Ipomoeassin F); cited from earlier work
DU-145 = conditions: published NCI60 panel data, ref 1 (Coibamide A), 2 (Apratoxin A), 3 (Ipomoeassin F); cited from earlier work
NCI-H226 = conditions: published NCI60 panel data, ref 1 (Coibamide A), 2 (Apratoxin A), 3 (Ipomoeassin F); cited from earlier work
A549/ATCC = conditions: published NCI60 panel data, ref 1 (Coibamide A), 2 (Apratoxin A), 3 (Ipomoeassin F); cited from earlier work
COLO 205 = conditions: published NCI60 panel data, ref 1 (Coibamide A), 2 (Apratoxin A), 3 (Ipomoeassin F); cited from earlier work
SNB-75 = conditions: published NCI60 panel data, ref 1 (Coibamide A), 2 (Apratoxin A), 3 (Ipomoeassin F); cited from earlier work
HOP-92 = conditions: published NCI60 panel data, ref 1 (Coibamide A), 2 (Apratoxin A), 3 (Ipomoeassin F); cited from earlier work
CCRF-CEM = conditions: published NCI60 panel data, ref 1 (Coibamide A), 2 (Apratoxin A), 3 (Ipomoeassin F); cited from earlier work
NCI-H522 = conditions: published NCI60 panel data, ref 1 (Coibamide A), 2 (Apratoxin A), 3 (Ipomoeassin F); cited from earlier work
MALME-3M = conditions: published NCI60 panel data, ref 1 (Coibamide A), 2 (Apratoxin A), 3 (Ipomoeassin F); cited from earlier work
SF-539 = conditions: published NCI60 panel data, ref 1 (Coibamide A), 2 (Apratoxin A), 3 (Ipomoeassin F); cited from earlier work
NCI-H460 = conditions: published NCI60 panel data, ref 1 (Coibamide A), 2 (Apratoxin A), 3 (Ipomoeassin F); cited from earlier work
NCI/ADR-RES = conditions: published NCI60 panel data, ref 1 (Coibamide A), 2 (Apratoxin A), 3 (Ipomoeassin F); cited from earlier work
SF-268 = conditions: published NCI60 panel data, ref 1 (Coibamide A), 2 (Apratoxin A), 3 (Ipomoeassin F); cited from earlier work
HCT-116 = conditions: published NCI60 panel data, ref 1 (Coibamide A), 2 (Apratoxin A), 3 (Ipomoeassin F); cited from earlier work
MDA-MB-435 = conditions: published NCI60 panel data, ref 1 (Coibamide A), 2 (Apratoxin A), 3 (Ipomoeassin F); cited from earlier work
SNB-19 = conditions: published NCI60 panel data, ref 1 (Coibamide A), 2 (Apratoxin A), 3 (Ipomoeassin F); cited from earlier work
SN12C = conditions: published NCI60 panel data, ref 1 (Coibamide A), 2 (Apratoxin A), 3 (Ipomoeassin F); cited from earlier work
SW-620 = conditions: published NCI60 panel data, ref 1 (Coibamide A), 2 (Apratoxin A), 3 (Ipomoeassin F); cited from earlier work
K-562 = conditions: published NCI60 panel data, ref 1 (Coibamide A), 2 (Apratoxin A), 3 (Ipomoeassin F); cited from earlier work
SK-MEL-2 = conditions: published NCI60 panel data, ref 1 (Coibamide A), 2 (Apratoxin A), 3 (Ipomoeassin F); cited from earlier work
NCI-H322M = conditions: published NCI60 panel data, ref 1 (Coibamide A), 2 (Apratoxin A), 3 (Ipomoeassin F); cited from earlier work
HCT-15 = conditions: published NCI60 panel data, ref 1 (Coibamide A), 2 (Apratoxin A), 3 (Ipomoeassin F); cited from earlier work
786-0 = conditions: published NCI60 panel data, ref 1 (Coibamide A), 2 (Apratoxin A), 3 (Ipomoeassin F); cited from earlier work
SR = conditions: published NCI60 panel data, ref 1 (Coibamide A), 2 (Apratoxin A), 3 (Ipomoeassin F); cited from earlier work
M14 = conditions: published NCI60 panel data, ref 1 (Coibamide A), 2 (Apratoxin A), 3 (Ipomoeassin F); cited from earlier work
T-47D = conditions: published NCI60 panel data, ref 1 (Coibamide A), 2 (Apratoxin A), 3 (Ipomoeassin F); cited from earlier work
UO-31 = conditions: published NCI60 panel data, ref 1 (Coibamide A), 2 (Apratoxin A), 3 (Ipomoeassin F); cited from earlier work
HS 578T = conditions: published NCI60 panel data, ref 1 (Coibamide A), 2 (Apratoxin A), 3 (Ipomoeassin F); cited from earlier work
SF-295 = conditions: published NCI60 panel data, ref 1 (Coibamide A), 2 (Apratoxin A), 3 (Ipomoeassin F); cited from earlier work
OVCAR5 = conditions: published NCI60 panel data, ref 1 (Coibamide A), 2 (Apratoxin A), 3 (Ipomoeassin F); cited from earlier work
SK-MEL-28 = conditions: published NCI60 panel data, ref 1 (Coibamide A), 2 (Apratoxin A), 3 (Ipomoeassin F); cited from earlier work
OVCAR4 = conditions: published NCI60 panel data, ref 1 (Coibamide A), 2 (Apratoxin A), 3 (Ipomoeassin F); cited from earlier work
OVCAR3 = conditions: published NCI60 panel data, ref 1 (Coibamide A), 2 (Apratoxin A), 3 (Ipomoeassin F); cited from earlier work
OVCAR8 = conditions: published NCI60 panel data, ref 1 (Coibamide A), 2 (Apratoxin A), 3 (Ipomoeassin F); cited from earlier work
UACC-257 = conditions: published NCI60 panel data, ref 1 (Coibamide A), 2 (Apratoxin A), 3 (Ipomoeassin F); cited from earlier work
BT-549 = conditions: published NCI60 panel data, ref 1 (Coibamide A), 2 (Apratoxin A), 3 (Ipomoeassin F); cited from earlier work
A498 = conditions: published NCI60 panel data, ref 1 (Coibamide A), 2 (Apratoxin A), 3 (Ipomoeassin F); cited from earlier work
SK-OV-3 = conditions: published NCI60 panel data, ref 1 (Coibamide A), 2 (Apratoxin A), 3 (Ipomoeassin F); cited from earlier work
HL-60 (TB) = conditions: published NCI60 panel data; cited from earlier work
HOP-62 = conditions: published NCI60 panel data, ref 1 (Coibamide A), 2 (Apratoxin A), 3 (Ipomoeassin F); cited from earlier work
RPMI-8226 = conditions: published NCI60 panel data, ref 1 (Coibamide A), 2 (Apratoxin A), 3 (Ipomoeassin F); cited from earlier work
HCC-2998 = conditions: published NCI60 panel data, ref 1 (Coibamide A), 2 (Apratoxin A), 3 (Ipomoeassin F); cited from earlier work
RXF 393 = conditions: published NCI60 panel data, ref 1 (Coibamide A), 2 (Apratoxin A), 3 (Ipomoeassin F); cited from earlier work
UACC-62 = conditions: published NCI60 panel data, ref 1 (Coibamide A), 2 (Apratoxin A), 3 (Ipomoeassin F); cited from earlier work
HT29 = conditions: published NCI60 panel data, ref 1 (Coibamide A), 2 (Apratoxin A), 3 (Ipomoeassin F); cited from earlier work
MCF7 = conditions: published NCI60 panel data, ref 1 (Coibamide A), 2 (Apratoxin A), 3 (Ipomoeassin F); cited from earlier work
EKVX = conditions: published NCI60 panel data, ref 1 (Coibamide A), 2 (Apratoxin A), 3 (Ipomoeassin F); cited from earlier work
IGROV1 = conditions: published NCI60 panel data, ref 1 (Coibamide A), 2 (Apratoxin A), 3 (Ipomoeassin F); cited from earlier work
LOX IMVI = conditions: published NCI60 panel data, ref 1 (Coibamide A), 2 (Apratoxin A), 3 (Ipomoeassin F); cited from earlier work
PC-3 = conditions: published NCI60 panel data, ref 1 (Coibamide A), 2 (Apratoxin A), 3 (Ipomoeassin F); cited from earlier work
Sec61α = assay: Photoaffinity labeling competition in sheep rough microsomes; assay type: binding; conditions: SRM with 100 nM Sec61, 30 min with competitor, then 100 nM photo-CbA, UV 10 min, TAMRA in-gel fluorescence
Protocol: Figure 2 Photo-cross-linking of photo-CbA to Sec61α and CbA stabilization of Sec61 in cells. Photocotransin (CT7) or photocoibamide (pCbA) cross-linking to cells or sheep rough microsomes (SRM). Samples were photolyzed and the covalent adduct detected by click-chemistry to TAMRA-azide reporter and in-gel fluorescence scanning and Western blotting. (A) A431 cell lines were first incubated with CbA or carrier, followed by incubation with photo-CbA, photolysis, and click chemistry. Following SDS PAGE, lysates were queried for in gel fluorescence and subsequently transferred for anti-Sec61α and anti-FLAG Western Blot. Arrows indicate Sec61 (with or without a 10 kDa insert), star indicates nonspecific WB signal, triangle indicates free TAMRA dye within the gel. (B) As in A but in SRMs. […] Heat-treated cell suspensions were snap frozen, lysates cleared by centrifugation, and the soluble fraction analyzed by SDS-PAGE and Western blotting. […] (F) Quantification of immunoblot data shown in E. Sec61α band intensity was normalized to tubulin, and data points were fitted using nonlinear regression analysis.
The photoaffinity labeling and click chemistry with microsomes were done as previously described.[17] […] The labeled proteins were analyzed by SDS-PAGE and in-gel fluorescence. […]

## C/C=C(\C)C(=O)O[C@@H]1[C@@H](O)[C@@H]2O[C@H]3[C@H](O[C@@H](CCCCC)CCCCCCC(=O)CCC(=O)OC[C@@H](O2)[C@H]1OC(=O)/C=C/c1ccccc1)O[C@H](C)[C@H](OC(C)=O)[C@@H]3O [IpoF, ipomoeassin F]
NCI-H23
  GI50: 0.213 µM
MOLT-4
  GI50: 3.42 µM
SK-MEL-5
  GI50: 0.01 µM
KM12
  GI50: 0.01 µM
MDA-MB-231/ATCC
  GI50: 0.01 µM
U251
  GI50: 0.01 µM
TK-10
  GI50: 0.0152 µM
DU-145
  GI50: 0.0319 µM
NCI-H226
  GI50: 0.276 µM
A549/ATCC
  GI50: 0.01 µM
COLO 205
  GI50: 0.01 µM
SNB-75
  GI50: 0.01 µM
HOP-92
  GI50: 0.01 µM
CCRF-CEM
  GI50: 0.741 µM
NCI-H522
  GI50: 0.0279 µM
MALME-3M
  GI50: 0.0578 µM
SF-539
  GI50: 0.01 µM
NCI-H460
  GI50: 0.01 µM
NCI/ADR-RES
  GI50: 0.297 µM
SF-268
  GI50: 0.115 µM
HCT-116
  GI50: 0.01 µM
MDA-MB-435
  GI50: 0.01 µM
SNB-19
  GI50: 0.129 µM
SN12C
  GI50: 0.01 µM
SW-620
  GI50: 0.01 µM
K-562
  GI50: 0.01 µM
SK-MEL-2
  GI50: 0.445 µM
NCI-H322M
  GI50: 0.391 µM
HCT-15
  GI50: 0.0298 µM
786-0
  GI50: 0.0301 µM
SR
  GI50: 0.0144 µM
M14
  GI50: 0.01 µM
T-47D
  GI50: 0.01 µM
UO-31
  GI50: 0.01 µM
HS 578T
  GI50: 0.01 µM
SF-295
  GI50: 0.01 µM
OVCAR5
  GI50: 1.23 µM
SK-MEL-28
  GI50: 0.0175 µM
OVCAR4
  GI50: 1.58 µM
OVCAR3
  GI50: 0.0283 µM
OVCAR8
  GI50: 0.117 µM
UACC-257
  GI50: 0.0119 µM
BT-549
  GI50: 0.0179 µM
A498
  GI50: 0.315 µM
SK-OV-3
  GI50: 0.0384 µM
HL-60 (TB)
  GI50: 0.049 µM
HOP-62
  GI50: 0.01 µM
RPMI-8226
  GI50: 0.01 µM
HCC-2998
  GI50: 1.18 µM
RXF 393
  GI50: 0.01 µM
UACC-62
  GI50: 0.0153 µM
HT29
  GI50: 0.01 µM
MCF7
  GI50: 0.01 µM
EKVX
  GI50: 0.01 µM
IGROV1
  GI50: 0.0267 µM
LOX IMVI
  GI50: 0.01 µM
PC-3
  GI50: 0.01 µM

## CC(=C\C=C\C(C)=C\[C@H](O)[C@@H](O)C[C@H](C)O)/C=C(C)/C=C/C(=O)O[C@H]1CCCC(=O)O[C@@H]([C@@H](C)C/C(C)=C/[C@@H](C)[C@H](O)C[C@@H](C)O)C/C=C(\C)C[C@@H]1C [mycolactone]
Sec61α
  competition of photo-CbA cross-linking to Sec61α: prevented photo-CbA cross-linking in a concentration-dependent manner
